Article PMC2997912 (Molecular pharmaceutics, 2010)

Molecular target: T1, hASBT (Homo sapiens, UniProt Q12908)
T1 sequence (Q12908 1-348): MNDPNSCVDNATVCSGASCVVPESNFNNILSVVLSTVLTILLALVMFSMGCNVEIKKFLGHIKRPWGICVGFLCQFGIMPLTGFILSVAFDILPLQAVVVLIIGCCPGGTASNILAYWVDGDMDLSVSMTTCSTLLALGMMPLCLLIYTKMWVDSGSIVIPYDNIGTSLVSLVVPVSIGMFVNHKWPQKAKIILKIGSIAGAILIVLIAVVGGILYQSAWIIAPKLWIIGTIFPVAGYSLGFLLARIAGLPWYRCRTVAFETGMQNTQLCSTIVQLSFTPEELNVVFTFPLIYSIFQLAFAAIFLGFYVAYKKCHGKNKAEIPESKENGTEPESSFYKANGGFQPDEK
Assay: Conjugate uptake into hASBT-MDCK cells in the presence of sodium
Assay type: cell-based

## C[C@H](CCC(=O)NCCS(=O)(=O)O)[C@H]1CC[C@H]2[C@@H]3[C@H](O)C[C@@H]4C[C@H](O)CC[C@]4(C)[C@H]3C[C@H](O)[C@]12C [taurocholate, Taurocholate]
  Vmax: 0.699 pmol/cm^2/s
